{"source": "patent US7259148B2", "about": "“Hepatoprotective activity of 2′-p-hydroxybenzoylmussaenosidic acid” (Council of Scientific & Industrial Research, priority 2003, dated 2007)", "key": {"[1]": {"tested_on": "CCl4 induced hepatic injury in rats", "test": "Hepatoprotective activity (in vivo) against CCl4 induced hepatic injury in rats", "excerpt": "033 and 033 (2) reduced the elevated levels of serum OPT, GOT, ALP, bilirubin, TG and liver homogenate lipid peroxidation and increased the GSH level. […] The same with silymarin was: 58.44, 51:63, 52,26,57.50,41.30,62.05 & 60.15% respectively. (Table-1). [table]"}, "[2]": {"tested_on": "GalN induced hepatic injury in rats", "test": "Hepatoprotective activity (in vivo) against GalN (galactosamine) induced hepatic injury in rats", "excerpt": "On treatment of experimental animals with galactosamine (GaIN) induced hepatic damage the hepatoprotective activity observed with 033 and 033 (2) was 59.58 & 50.75, 56.62 & 43.64, 54.28 & 50.11, 57.71 & 57.57, 57.89 & 44.76 percent in serum GPT, GOT, Bilirubin, ALP, and TG respectively and 67.51 & 38.65, 66-56 & 48.10 percent in liver homogenate lipid peroxidation (LP) and GSH respectively. The same with silymarin was 57.38, 55.40, 60.00. 53.54,46.17, 69.59, 67.18 percent respectively (Table-2). Advantages of the present invention over currently used plant based hepatoprotectives: • 1. […] Silymarin is a mixture of three constituents whose relative proportion varies from batch to batch while negundoside is a pure compound. [table]"}, "[3]": {"conditions": "rats, CCl4 1 ml/kg p.o., fed p.o. at 48 h, 24 h, 2 h before and 6 h after, 033 400 mg/kg, 033 (2) and silymarin 50 mg/kg, n=6"}, "[4]": {"conditions": "rats, GalN 300 mg/kg s.c., fed p.o. at 48 h, 24 h, 2 h before and 6 h after, 033 400 mg/kg, 033 (2) and silymarin 50 mg/kg, n=6"}}, "data": [{"smiles": "C[C@]1(O)CC[C@@H]2C(C(=O)O)=CO[C@@H](O[C@@H]3O[C@H](CO)[C@@H](O)[C@H](O)[C@H]3OC(=O)c3ccc(O)cc3)[C@@H]21", "note": "[033 (2), 2′-p-hydroxybenzoylmussaenosidic acid]", "values": [{"measurement": "Hepatoprotective activity in words", "setting": "[1]; experimentally induced hepatic damage in rodents, CCl4 as hepatotoxin", "value": "marked hepatoprotective activity"}, {"measurement": "Hepatic Glutathione (GSH, liver homogenate): mean percent hepatoprotective activity", "setting": "[1]; [3]", "value": 45.56, "unit": "%"}, {"measurement": "Hepatic Lipid peroxidation (liver homogenate): mean percent hepatoprotective activity", "setting": "[1]; [3]", "value": 45.85, "unit": "%"}, {"measurement": "Serum ALP: mean percent hepatoprotective activity", "setting": "[1]; [3]", "value": 53.95, "unit": "%"}, {"measurement": "Serum Bilirubin (mg %): mean percent hepatoprotective activity", "setting": "[1]; [3]", "value": 66.66, "unit": "%"}, {"measurement": "Serum GOT (Units): mean percent hepatoprotective activity", "setting": "[1]; [3]", "value": 58.05, "unit": "%"}, {"measurement": "Serum OPT (Units): mean percent hepatoprotective activity (reduction of elevated GPT)", "setting": "[1]; [3]", "value": 60.34, "unit": "%"}, {"measurement": "Serum Triglycerides (mg %): mean percent hepatoprotective activity", "setting": "[1]; [3]", "value": 44.19, "unit": "%"}, {"measurement": "Hepatoprotective activity in words", "setting": "[2]; experimentally induced hepatic damage with galactosamine (GalN) in rats", "value": "marked hepatoprotective activity"}, {"measurement": "Hepatic Glutathione (GSH, liver homogenate): mean percent hepatoprotective activity", "setting": "[2]; [4]", "value": 48.10, "unit": "%"}, {"measurement": "Hepatic Lipid peroxidation (LP, liver homogenate): mean percent hepatoprotective activity", "setting": "[2]; [4]", "value": 38.65, "unit": "%"}, {"measurement": "Serum ALP: mean percent hepatoprotective activity", "setting": "[2]; [4]", "value": 57.57, "unit": "%"}, {"measurement": "Serum Bilirubin (mg %): mean percent hepatoprotective activity", "setting": "[2]; [4]", "value": 50.11, "unit": "%"}, {"measurement": "Serum GOT (Units): mean percent hepatoprotective activity", "setting": "[2]; [4]", "value": 43.64, "unit": "%"}, {"measurement": "Serum GPT (Units): mean percent hepatoprotective activity (GPT)", "setting": "[2]; [4]", "value": 50.75, "unit": "%"}, {"measurement": "Serum Triglycerides (mg %): mean percent hepatoprotective activity", "setting": "[2]; [4]", "value": 44.76, "unit": "%"}]}]}
